Experimental data reported in patent US20230130066A1, “USE OF CYCLODEXTRINS IN DISEASES AND DISORDERS INVOLVING PHOSPHOLIPID DYSREGULATION” (priority 2017, published 2023).
Where “and” joins values, the source holds several entries; their conditions need not be identical. Equal values may be shown once. Read-outs that look alike come from different tables or passages of the source.

Tests used:
[1] = system: unesterified cholesterol (UC) storage; settings: 3-week-old Npc1-/- mice, dorsal neocortex, filipin; cited from earlier work
HeLa/TFEB cells = settings: cited from earlier work
leukemia = leukemia mouse models; cited from earlier work
Aβ42 = settings: SwN2a cells; persistent for 24 h after withdrawal; cited from earlier work
rats [2] = settings: cited from earlier work
MCF-7 cells = test: Wound healing / gap closure migration assay, MCF-7; format: cell-based, human; settings: 2 h treatment; for wound closure, replications r1-r3: listed as HPbCD
Description: (§1) Cells were cultured in 24-well culture plates (Cytoselect CBA-120, 0.9 mm wound healing/gap closure migration assay) for 24 h with wound healing insert in place.
(§2) Protocol: Warm up the 24-well plate (CBA-120, Cell BioLabs Inc.) with 0.9 mm CytoSelect Wound Healing Inserts at room temperature for 10 minutes. Using sterile forceps, orient the desired number of inserts in the plate wells with their “wound field” aligned in the same direction. Create a cell suspension containing 0.5-1.0×10^6 cells/ml in media containing 10% fetal bovine serum (FBS). Add 500 μL of cell suspension to each well by carefully inserting the pipette tip through the open end at the top of the insert. For optimal cell dispersion, add 250 μL of cell suspension to either side of the open ends at the top of the insert. Incubate cells in a cell culture incubator for 12-24 hours. Carefully remove the insert from the well to begin the wound healing assay. Use sterile forceps to grab and lift the insert slowly from the plate well. Slowly aspirate and discard the media from the wells. Wash wells with media to remove dead cells and debris. Finally, add media to wells to keep cells hydrated. Repeat wash if wells still have debris or unattached cells. When washing is complete, add media with FBS and/or compounds to continue cell culture and wound healing process. Agents that inhibit or stimulate cell migration can be added directly to the wells. Incubate cells in a cell culture incubator (2 hours) and then wash cells with PBS and then add fresh media without compounds. Incubate 12-24 hours before wash and fixing. Remove the fixation solution and add 400 μL of Cell Stain Solution to each well. Allow the stain to incubate with the cells for 15 minutes at room temperature. Aspirate and discard the solution. Carefully wash each stained well 3× with deionized water. Discard washes and allow cells to dry at room temperature. Cells that migrated into the wounded area or protruded from the border of the wound were visualized and photographed under an inverted microscope. Determine the surface area of the defined wound area: Total Surface Area=0.9 mm x length. Determine the surface area of the migrated cells into the wound area: Migrated Cell Surface Area=length of cell migration (mm)×2×length. Percent Closure (%)=Migrated Cell Surface Area/Total Surface Area x 100.

Tg19959 mice [3] = settings: four months subcutaneous; cited from earlier work
[4] = cited from earlier work
BBB [5] = settings: cited from earlier work; for Transport across BBB: 2 h, 1 mM
MDA-MB-231 cells = test: Wound healing / gap closure migration assay, MDA-MB-231; format: cell-based, human; settings: 2 h treatment; for wound closure, replications r1-r3: listed as HPbCD
Description: Published results have shown that β-CD inhibits human MDA-MB 231 cell migration. See Translational Medicine Communications, 1 (1), 3. This inhibition was attributed to the ability of β-CD to “deplete cholesterol”. β-CD, however, depletes also phospholipids.
as §1, §2

LINCL fibroblasts = settings: dose- and time-dependent; cited from earlier work
[6] = mice, cats, and one human; cited from earlier work
[7] = rats, suppositories containing triglycerides (Witepsol H5); cited from earlier work
cats = settings: doses of 4-8 g/kg; cited from earlier work
human keratinocytes = settings: cited from earlier work
BBB [8] = settings: cited from earlier work
[9] = cited from earlier work; remark: listed apart in the source
rats [10] = settings: cited from earlier work; remark: listed apart in the source
membrane cholesterol = settings: SwN2a cells; cited from earlier work
[11] = Table 3; cited from earlier work
Tg19959 mice [12] = settings: four months subcutaneous; cited from earlier work; remark: listed apart in the source
a-syn aggregates = settings: neuroglioma cells, via autophagy; cited from earlier work
[13] = cited from earlier work; remark: listed apart in the source
[14] = in vivo; cited from earlier work
Caco-2 monolayers = settings: cited from earlier work; for equally effective concentration on paracellular permeability: after 40 min
[15] = mice with spinobulbar muscular atrophy (SBMA); cited from earlier work
rats [16] = settings: […] daily; cited from earlier work
NPC cells = settings: cited from earlier work
erythrocytes = settings: cited from earlier work
Aβ1-40/42 = settings: rats, stereotactical injection into the hippocampus; cited from earlier work
transferrin endocytosis = settings: 10 mM; cited from earlier work
Caco-2 cells = settings: cited from earlier work

Compound: 2-hydroxypropyl-β-cyclodextrin [HP-β-CD]
- UC storage in brain cells [1]: highly effective reduction
- expression of LC3, SQSTM1/p62 and BECN1 (HeLa/TFEB cells): up-regulated
- survival (leukemia): prolonged survival
- levels of Aβ42 (Aβ42): dramatically lowered
- acute i.v. toxicity in rats (rats [2]): 10 g/kg
- average wound closure (avg) (MCF-7 cells; MCF-7, 1 mM): 73.33%
- wound closure, replications r1-r3 (MCF-7 cells; MCF-7, 1 mM): 68.00% and 74.00% and 78.00%
- average wound closure (avg) (MCF-7 cells; MCF-7, 2 mM): 48.33%
- wound closure, replications r1-r3 (MCF-7 cells; MCF-7, 2 mM): 41.00% and 48.00% and 56.00%
- average wound closure (avg) (MCF-7 cells; MCF-7, 4 mM): 33.67%
- wound closure, replications r1-r3 (MCF-7 cells; MCF-7, 4 mM): 32.00% and 28.00% and 41.00%
- spatial learning and memory deficits (Tg19959 mice [3]): significantly improved
- oral absorption in rats [4]: ≤3%
- Transport across BBB (BBB [5]): 9.3%
- average wound closure (avg) (MDA-MB-231 cells; MDA-MB-231, 1 mM): 67.67%
- wound closure, replications r1-r3 (MDA-MB-231 cells; MDA-MB-231, 1 mM): 62.00% and 68.00% and 73.00%
- average wound closure (avg) (MDA-MB-231 cells; MDA-MB-231, 2 mM): 56.00%
- wound closure, replications r1-r3 (MDA-MB-231 cells; MDA-MB-231, 2 mM): 48.00% and 59.00% and 61.00%
- average wound closure (avg) (MDA-MB-231 cells; MDA-MB-231, 4 mM): 39.00%
- wound closure, replications r1-r3 (MDA-MB-231 cells; MDA-MB-231, 4 mM): 48.00% and 44.00% and 25.00%
- ceroid lipopigment (LINCL fibroblasts): clearance of ceroid lipopigment
- ototoxicity [6]: risk of causing permanent hearing loss
- absorption, administered rectally [7]: 26%
- ototoxicity (cats): permanent hearing loss
- apoptotic cell death (human keratinocytes; human keratinocytes): not apoptotic
- BBB breakdown (BBB [8]): 2.5 mM
- toxicity on BBB in vitro (BBB [8]): similar
- tolerability ([9]; children with NPC, doses of up to 1000 mg/kg/d): well tolerated
- side effects ([9]; two children with NPC, about 2500 mg/kg bi-weekly (≈700 mg/kg/d), over a year): no discernable side effects
- effect of 1 g/kg in rats (rats [10]): did not cause adverse clinical signs
- level of membrane cholesterol (membrane cholesterol): reduced
- Solubility in water [11]: >600 mg/mL
- Aβ plaque deposition (Tg19959 mice [12]): diminished
- tau immunoreactive dystrophic neurites (DN) (Tg19959 mice [12]): reduced
- a-syn aggregates (a-syn aggregates): promoted clearance
- bone mineral density (BMD) ([13]; long-term parenteral administration, 200 mg/kg): decrease bone mineral density
- half-life (t1/2) [14]: 1.7 to 1.9 h
- vol. of distribution (VD) [14]: 0.2 L/kg

Compound: CCCCCCCCCC(=O)O [C10, Capric acid]
- equally effective concentration on paracellular permeability (Caco-2 monolayers): 13 mM

Compound: CCCCCCCCCCCC(=O)O [C12, lauric acid]
- tight junction morphology (Caco-2 monolayers; Caco-2 monolayers): did not induce detectable changes
- equally effective concentration on paracellular permeability (Caco-2 monolayers): 0.75 mM

Compound: CN1CCCC1c1cccnc1 (stereo not drawn) [nicotine]
- transported through the BBB (BBB [5]; in vitro, after 2 h of incubation): 96%

Compound: C[C@@]12C[C@@]3(O)O[C@@H](O1)[C@]1(COC(=O)c4ccccc4)[C@H]3C[C@@]12O[C@@H]1O[C@H](CO)[C@@H](O)[C@H](O)[C@H]1O [paeoniflorin]
- disease phenotype [15]: mitigates the disease phenotype

Compound: OC[C@H]1O[C@@H]2O[C@H]3[C@H](O)[C@@H](O)[C@@H](O[C@H]4[C@H](O)[C@@H](O)[C@@H](O[C@H]5[C@H](O)[C@@H](O)[C@@H](O[C@H]6[C@H](O)[C@@H](O)[C@@H](O[C@H]7[C@H](O)[C@@H](O)[C@@H](O[C@H]8[C@H](O)[C@@H](O)[C@@H](O[C@H]1[C@H](O)[C@H]2O)O[C@@H]8CO)O[C@@H]7CO)O[C@@H]6CO)O[C@@H]5CO)O[C@@H]4CO)O[C@@H]3CO [β-CD, beta-cyclodextrin]
- acute i.v. toxicity in rats (rats [2]): 1 g/kg
- deaths, daily doses s.c. (rats [16]): no deaths
- Transport across BBB (BBB [5]): 26.7%
- apoptotic cell death (human keratinocytes): induces caspase-dependent apoptotic cell death
- BBB breakdown (BBB [8]): 2.5 mM
- toxicity on BBB in vitro (BBB [8]): similar
- cholesterol accumulation (NPC cells): can reduce cholesterol accumulation
- cholesterol released (erythrocytes; 10 mM): 95%
- extraction of cholesterol (erythrocytes; erythrocytes): most effectively
- Toxicity of Aβ1-40/42 (Aβ1-40/42): reduced
- reduction of transferrin endocytosis (transferrin endocytosis): 80%

Compound: OC[C@H]1O[C@@H]2O[C@H]3[C@H](O)[C@@H](O)[C@@H](O[C@H]4[C@H](O)[C@@H](O)[C@@H](O[C@H]5[C@H](O)[C@@H](O)[C@@H](O[C@H]6[C@H](O)[C@@H](O)[C@@H](O[C@H]7[C@H](O)[C@@H](O)[C@@H](O[C@H]8[C@H](O)[C@@H](O)[C@@H](O[C@H]9[C@H](O)[C@@H](O)[C@@H](O[C@H]1[C@H](O)[C@H]2O)O[C@@H]9CO)O[C@@H]8CO)O[C@@H]7CO)O[C@@H]6CO)O[C@@H]5CO)O[C@@H]4CO)O[C@@H]3CO [γ-CD, gamma-cyclodextrin]
- cholesterol accumulation (NPC cells): can reduce cholesterol accumulation

Compound: alendronate-β-CD [ALN-β-CD]
- effect on bone ([13]; rat, in vivo): bone-anabolic

Compound: maltosyl-α-CD
- cytotoxicity (Caco-2 cells): less cytotoxic than α-CD
